This is an account of results in patent US8710224B2, “Heterocyclic compounds as CCR2B antagonists” (AstraZeneca AB, priority 2004, dated 2014).

For the assay, the target named is T1, recombinant human CCR5 receptor (Homo sapiens, UniProt P51681).
T1 construct: expressed in transfected cells; host or cells: Chinese hamster ovary (CHO) cells; membranes
As to the kind of experiment: Radioligand binding assay for inhibition of the binding of MIP-1α. The note with it: displacement of 0.1 nM iodinated MIP-1α; membranes of Chinese hamster ovary cells expressing CCR5. On the procedure: Biological Assay for the Ability of Compounds to Inhibit the Binding of MIP-1α This ability is assessed using an in vitro radioligand binding assay. Membranes are prepared from Chinese hamster ovary cells which express the recombinant human CCR5 receptor. These membranes are incubated with 0.1 nM iodinated MIP-1α, scintillation proximity beads and various concentrations of the compounds of the invention in 96-well plates. The amount of iodinated MIP-1α bound to the receptor is then determined by scintillation counting.

T1 sequence (P51681 whole entry): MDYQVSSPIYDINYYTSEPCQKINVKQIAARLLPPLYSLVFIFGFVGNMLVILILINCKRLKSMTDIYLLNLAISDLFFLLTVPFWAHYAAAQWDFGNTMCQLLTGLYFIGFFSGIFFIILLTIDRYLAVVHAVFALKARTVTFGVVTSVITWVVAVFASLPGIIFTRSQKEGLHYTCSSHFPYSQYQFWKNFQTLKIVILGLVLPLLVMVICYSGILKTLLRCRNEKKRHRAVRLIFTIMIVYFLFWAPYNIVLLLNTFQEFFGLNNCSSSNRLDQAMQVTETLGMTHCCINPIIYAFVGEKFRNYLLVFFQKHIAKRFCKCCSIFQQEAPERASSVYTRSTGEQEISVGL

Take `O=C(Nc1ccc(Cl)c(Cl)c1)N1CCN(CC2CCCN(C3CC3)C2)CC1` (stereo in doubt) [Example 139, 1-{[(3R)-1-Cyclopropylpiperidin-3-yl]methyl}-N-(3,4-dichlorophenyl)piperazine-4-carboxamide]: the IC50 is below 10 µM.
As for `O=C(Nc1ccccc1)N1CCN(CC2CCCN(C3CC3)C2)CC1` (stereo in doubt) [Example 183, N-Phenyl-4-{[(3R)-1-(2-cyclopropyl)piperidin-3-yl]methyl}piperazine-1-carboxamide], the IC50 was below 10 µM.
Under `O=C(Nc1ccc(Cl)cc1)N1CCN(CC2CCCN(C3CC3)C2)CC1` (stereo in doubt) [Example 185, N-(4-chlorophenyl)-4-{[(3R)-1-(2-cyclopropyl)piperidin-3-yl]methyl}piperazine-1-carboxamide] stands below 10 µM; under `CCC(C)N1CCOC(CN2CCN(C(=O)Nc3ccc(F)c(Cl)c3)CC2)C1` (stereo in doubt) [Example 236, N-(3-chloro-4-fluorophenyl)-4-({(2R)-4-[(1R)-1-methylpropyl]morpholin-2-yl}methyl)piperazine-1-carboxamide], below 10 µM; under `CCCC(C)N1CCOC(CN2CCN(C(=O)Nc3ccc(F)c(Cl)c3)CC2)C1` (stereo in doubt) [Example 237, N-(3-chloro-4-fluorophenyl)-4-({(2R)-4-[(1S)-1-methylbutyl]morpholin-2-yl}methyl)piperazine-1-carboxamide], below 10 µM.
`CC(Cc1ccccc1)N1CCCC(CN2CCN(C(=O)Nc3ccccc3)CC2)C1` (stereo in doubt) [Example 246, 4-[[(3R)-1-(1-methyl-2-phenyl-ethyl)-3-piperidyl]methyl]-N-phenyl-piperazine-1-carboxamide]: the IC50 is below 10 µM.
`CC(C)CC(C)N1CCOC(CN2CCN(C(=O)Nc3ccc(F)c(Cl)c3)CC2)C1` (stereo in doubt) [Example 259, N-(3-chloro-4-fluorophenyl)-4-({(2R)-4-[(1R)-1,3-dimethylbutyl]morpholin-2-yl}methyl)piperazine-1-carboxamide]: the IC50 was below 10 µM.
Under `O=C(Nc1ccc(Cl)c(Cl)c1)N1CCN(CC2CCCN(CC(O)c3cccc[n+]3[O-])C2)CC1` (stereo in doubt) [Example 267, N-(3,4-dichlorophenyl)-4-({(3R)-1-[2-hydroxy-2-(1-oxidopyridin-2-yl)ethyl]piperidin-3-yl}methyl)piperazine-1-carboxamide] stands below 10 µM; under `CN1CCCC(CN2CCN(C(=O)Nc3ccccc3)CC2)C1` (stereo not shown) [Example 1, 4-[(1-methylpiperidin-3-yl)methyl]-N-phenylpiperazine-1-carboxamide], below 10 µM.
Under `O=C(Nc1ccc(Cl)c(Cl)c1)N1CCN(C[C@@H]2CCCN(CC3CC3)C2)CC1` [Example 19, 4-{[(3R)-1-(cyclopropylmethyl)-piperidin-3-yl]methyl}-N-(3,4-dichlorophenyl)-piperazine-1-carboxamide] stands below 10 µM.
Regarding `Cc1ccc(NC(=O)N2CCN(CC3CCCN(C)C3)CC2)cc1Cl` (stereo not shown) [Example 26, N-(3-chloro-4-methylphenyl)-4-[(1-methylpiperidin-3-yl)methyl]piperazine-1-carboxamide], the IC50 is below 10 µM.
As to `O=C(Nc1ccc(Cl)c(Cl)c1)N1CCN(C[C@@H]2CCCN(Cc3cc[nH]n3)C2)CC1` [Example 34, N-(3,4-dichlorophenyl)-4-{[(3S)-1-(1H-pyrazol-3-ylmethyl)-piperidin-3-yl]methyl}piperazine-1-carboxamide], the IC50 was below 10 µM.
The result for `CN1CCCC(CN2CCN(C(=O)Nc3cc(Cl)cc(Cl)c3)CC2)C1` (stereo not shown) [Example 41, N-(3,5-dichlorophenyl)-4-[(1-methylpiperidin-3-yl)methyl]piperazine-1-carboxamide] reads below 10 µM; that for `O=C1CN(C(=O)Nc2ccc(Cl)c(Cl)c2)CCN1CC1CCCN(Cc2ccccc2)C1` (stereo not shown) [Example 42, 4-[(1-benzylpiperidin-3-yl)methyl]-N-(3,4-dichlorophenyl)-3-oxopiperazine-1-carboxamide], below 10 µM; that for `Cc1cccnc1CN1CCC[C@@H](CN2CCN(C(=O)Nc3ccc(Cl)c(Cl)c3)CC2)C1` [Example 44, N-(3,4-dichlorophenyl)-4-({(3S)-1-[(3-methylpyridin-2-yl)methyl]piperidin-3-yl}methyl)piperazine-1-carboxamide], below 10 µM.
With `COc1ccc(CN2CCC[C@@H](CN3CCN(C(=O)Nc4ccc(Cl)c(Cl)c4)CC3)C2)cc1` [Example 47, N-(3,4-dichlorophenyl)-4-{[(3R)-1-(4-methoxybenzyl)piperidin-3-yl]methyl}piperazine-1-carboxamide], the IC50 was below 10 µM.
The result for `N#C/N=C(\Nc1ccc(Cl)c(Cl)c1)N1CCN(C[C@@H]2CCCN(CCc3ccccc3)C2)CC1` [Example 79, N-cyano-N-(3,4-dichlorophenyl)-4-{[(3R)-1-(2-phenylethyl)piperidin-3-yl]methyl}piperazine-1-carboximidamide] reads below 10 µM.
Under `CC(C)N1CCC[C@@H](CN2CCN(C(=O)Nc3ccc(Cl)c(Cl)c3)CC2)C1` [Example 84, N-(3,4-dichlorophenyl)-4-{[(3S)-1-isopropylpiperidin-3-yl]methyl}piperazine-1-carboxamide] stands below 10 µM; under `O=C(Nc1ccc(Cl)c(Cl)c1)N1CCN(C(=O)[C@@H]2CCCN(CCc3ccccc3)C2)CC1` [Example 89, N-(3,4-dichlorophenyl)-4-{[(3R)-1-(2-phenylethyl)piperidin-3-yl]carbonyl}piperazine-1-carboxamide], below 10 µM.
As to `CCN1CCC[C@@H](C(=O)N2CCN(C(=O)Nc3ccc(Cl)c(Cl)c3)CC2)C1` [Example 90, N-(3,4-dichlorophenyl)-4-{[(3R)-1-ethylpiperidin-3-yl]carbonyl}piperazine-1-carboxamide], the IC50 was below 10 µM.
Under `CCN1CCC[C@@H](CN2CCN(C(=O)Nc3ccc(Cl)c(Cl)c3)CC2=O)C1` [Example 91, N-(3,4-dichlorophenyl)-4-{[(3R)-1-ethylpiperidin-3-yl]methyl}-3-oxopiperazine-1-carboxamide] stands below 10 µM.
For `O=C(Nc1ccc(C(F)(F)F)c(Cl)c1)N1CCN(C[C@@H]2CCCN(C3CC3)C2)CC1` [Example 106, N-[3-chloro-4-(trifluoromethyl)phenyl]-4-{[(3S)-1-cyclopropylpiperidin-3-yl]methyl}piperazine-1-carboxamide], the IC50 was below 10 µM.
In the case of `O=C(Nc1ccc(F)c(Cl)c1)N1CCN(C[C@@H]2CCCN(C3CC3)C2)CC1` [Example 107, N-(3-chloro-4-fluorophenyl)-4-{[(3S)-1-cyclopropylpiperidin-3-yl]methyl}piperazine-1-carboxamide], the IC50 is below 10 µM.
The result for `O=C(Nc1ccc(Br)cc1)N1CCN(C[C@@H]2CCCN(C3CC3)C2)CC1` [Example 108, N-(4-bromophenyl)-4-{[(3S)-1-cyclopropylpiperidin-3-yl]methyl}piperazine-1-carboxamide] reads below 10 µM.
For the molecule `O=C(Nc1cccc(C(F)(F)F)c1)N1CCN(C[C@@H]2CCCN(C3CC3)C2)CC1` [Example 109, 4-{[(3S)-1-cyclopropylpiperidin-3-yl]methyl}-N-[3-(trifluoromethyl)phenyl]piperazine-1-carboxamide], the IC50 was below 10 µM.
